For assay [1], the target named is T1, Human red-blood cell acetylcholinesterase (hAChE; EC 3.1.1.7) (Homo sapiens, UniProt P22303).
T1 construct: Human red-blood cell acetylcholinesterase; purchased Sigma-Aldrich (Prague, Czech Republic); host or cells: human red blood cells
Put plainly: biochemical. Conditions: pH 7.4, 37 °C, mean ± SEM, read-out: AChE (IC50 µM). On the procedure:
The AChE and BuChE inhibitory activity of the tested compounds was determined using a modified Ellman's method^31, 32.Human red-blood cell acetylcholinesterase (hAChE; EC 3.1.1.7), and human recombinant butyrylcholinesterase (hBuChE; EC 3.1.1.8), 5,5'-dithiobis(2-nitrobenzoic acid) (Ellman's reagent, DTNB), phosphate buffer (PB, pH 7.4), acetylthiocholine (ATC), and butyrylthiocholine (BTC), were purchased from Sigma-Aldrich (Prague, Czech Republic). Nunc polystyrene 96-well microplates with flat-bottom shape (ThermoFisher Scientific, USA) were used for the measurement and all the assay were carried out in 0.1 M KH2PO4/K2HPO4 buffer, pH 7.4. Enzyme solution was prepared at activity 2.0 units/mL in 2 mL aliquots. The assay mixture (100 µL) consisted of 40 µL of 0.1 M phosphate buffer (pH 7.4), 20 µL of 0.01 M DTNB, 10 µL of enzyme, and 20 µL of 0.01 M substrate (ATC iodide solution). Tested compounds were dissolved first in methanol (BIGI 23 in DMSO) and then further diluted by assay buffer to the final concentration. […] Enzyme with the inhibitor was preincubated for 5 min in the assay mixture and then the reaction was started by addition of 20 µL of substrate (ATC for AChE, BTC for BuChE). […] Each concentration was assayed in triplicate. The obtained data were used to compute the percentage inhibition (I; Equation 1): I = 1−(ΔAi)/(ΔA0) [%] [formula] ΔAi indicates the absorbance change provided by cholinesterase exposed to AChE inhibitors and ΔA0 indicates absorbance change caused by intact cholinesterase (phosphate buffer was used instead of AChE inhibitor solution).

In a further assay the target is Tau(306-336) peptide (Homo sapiens, UniProt P10636). The note with it: Tau(306-336) 50 µM, inhibitor 50 µM (1:1 ratio); mean ± SEM; 50 µM.
The subject of assay [2] is voltage-gated Ca^2+ channels (VGCC). Put plainly: Calcium channel antagonist assay (K+-evoked cytosolic Ca2+, Fluo-4). In kind it is cell-based. Conditions: SH-SY5Y cells, K+ 70 mM, mean ± SEM, read-out: IC50 (µM) Calcium channels blockade. On the procedure: The cytosolic Ca^2+ has been measured in SH-SY5Y cells. SH-SY5Y cells were maintained similarly to what was previously described^30. Free cytosolic Ca^2+ was measured using the fluorescent Ca^2+ indicator Fluo-4/AM (Fluo-4 acetomethoxyester). SH-SY5Y cells were seeded onto 96-well black plates at a density of 10^5 cells per well, achieving confluence after 48 h. Cells were washed with Krebs-Hepes solution (KH, in mM: 144 NaCl, 5.9 KCl, 1.2 MgCl2, 2 CaCl2, 11 D-glucose, 10 HEPES, pH 7.4). Cells were loaded with 10 µM Fluo-4/AM and 0.2% pluronic acid in KH and incubated for 45 min at 37 °C in the dark. Then, cells were washed twice with KH to remove the excess of probe. Tested compounds were incubated 10 min before K+ 70 mM was applied to evoke the increment of cytosolic Ca^2+. To normalize Fluo-4 signals, Triton X-100 (5%) and 1 M MnCl2 were applied to register both maximal and minimal fluorescence, respectively. The experiments were analyzed at excitation and emission wavelengths of 485 and 520 nm, respectively, and fluorescence was measured in a fluorescence microplate reader (FLUOstar Optima, BMG, Germany). Data were calculated as a percentage of Fmax - Fmin.
The blocking effect of the depolarization-induced Ca^2+ uptake was investigated in SH-SY5Y neuroblastoma cells stimulated with an extracellular concentration of K+ 70 mM, which induces the cell Ca^2+ levels elevation by opening voltage-gated Ca^2+ channels (VGCC), monitored with the Ca^2+-sensitive fluorescent dye Fluo-4. Nifedipine was used as positive standard.

The target of a further assay is T2, human AChE (Homo sapiens, UniProt P22303).
T2 construct: purchased Sigma-Aldrich (Prague, Czech Republic); host or cells: human red blood cells
Put plainly: Kinetic study of inhibition of AChE hydrolysis (Lineweaver-Burk, nonlinear regression). In kind it is biochemical. Conditions: for Ki: substrate acetylthiocholine; for type of inhibition: sum-of-squares F-test, p<0.05. On the procedure:
To obtain insight into the interactions of BIGI-3h and BIGI-3e with human AChE, a kinetic study was conducted. Substrate concentration - enzyme velocity curves were recorded in the presence of different concentrations of the tested compounds. […] The type of inhibition and corresponding inhibition constants (Ki and Ki') were determined by the nonlinear regression analysis of data. Results for each type model of inhibition (competitive, non-competitive, uncompetitive and mixed) were compared with sum-of-squares F-test. […] BIGI-3h and BIGI-3e bind to both free AChE and AChE-substrate complex, affecting the binding of substrate in the active site of enzyme, interacting with its allosteric peripheral anionic site. Interaction with this site causes conformational changes of the enzyme resulting also in changes of its active site. […]. Measured values are consistent with the IC50 values for AChE. It appears that both tested compounds tend to bind free AChE more than enzyme-substrate complex.

[3] abbreviates: binding to AChE-substrate complex.

From patent publication EP4168403B1 (priority 2020, dated 2021) come the findings set out here.

Several values for one entry are separate records, joined by “and”; a condition that tells them apart may be missing. Identical values can stand only once.

T2 sequence (P22303 32-617 isoform P22303-2 limits assumed): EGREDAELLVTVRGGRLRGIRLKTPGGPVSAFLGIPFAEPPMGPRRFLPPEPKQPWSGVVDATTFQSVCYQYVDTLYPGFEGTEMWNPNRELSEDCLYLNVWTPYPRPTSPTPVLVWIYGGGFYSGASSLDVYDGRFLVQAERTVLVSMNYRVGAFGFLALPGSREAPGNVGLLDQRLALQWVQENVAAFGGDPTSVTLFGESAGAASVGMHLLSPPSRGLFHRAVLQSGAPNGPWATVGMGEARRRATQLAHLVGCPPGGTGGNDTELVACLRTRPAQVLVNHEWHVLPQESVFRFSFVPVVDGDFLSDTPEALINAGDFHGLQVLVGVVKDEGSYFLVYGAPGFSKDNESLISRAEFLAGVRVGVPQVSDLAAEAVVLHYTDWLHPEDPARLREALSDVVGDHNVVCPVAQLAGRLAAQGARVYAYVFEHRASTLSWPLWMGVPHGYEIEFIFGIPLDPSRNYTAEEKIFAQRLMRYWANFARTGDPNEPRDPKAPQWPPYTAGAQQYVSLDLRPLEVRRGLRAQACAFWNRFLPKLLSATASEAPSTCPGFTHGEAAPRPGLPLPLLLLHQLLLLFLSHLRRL
T1 sequence (P22303 32-617 isoform P22303-2 limits assumed): as above
Chain of Tau(306-336) peptide (P10636 623-653 limits assumed): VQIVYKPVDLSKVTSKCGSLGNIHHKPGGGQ
Experimental for Tau(306-336) peptide: Subsequently, the sample was aliquoted dried and stored at -20 °C.
Fluorescence data were recorded every 10 min overnight with 1 min shaking at 800 rpm prior to each reading. Each inhibitor was assayed in triplicates in at least two independent experiments. […] Inhibition % are expressed as the mean ± SEM. […] Values were averaged and the presented values are expressed as the mean ± SEM.
Fluorescence data were recorded every 10 min overnight with 1 min shaking at 800 rpm prior to each reading.

Take `CCOC(=O)C1=C(C)N(CCC2CCN(Cc3ccccc3)CC2)C(=O)NC1c1coc2c(Cl)cc(Cl)cc2c1=O` (racemic) [BIGI-3h, ethyl 1-(2-(1-benzylpiperidin-4-yl)ethyl)-4-(6,8-dichloro-4-oxo-4H-chromen-3-yl)-6-methyl-2-oxo-1,2,3,4-tetrahydropyrimidine-5-carboxylate]: the IC50 amounted to 0.06 µM in assay [1] and 1.4 ± 0.4 µM in assay [2]. For the same molecule, at Tau(306-336) peptide, the “Inhibition of T (306-336) peptide self - aggregation (%)” value is 73.7% and 73.7 ± 5.4%. Further, the Ki was 77.6 ± 16.4 nM at human AChE (setting [3]) and 21.5 ± 5.19 nM at human AChE (binding to free AChE). Also, at human AChE, the type of inhibition result is “mixed non-competitive”.
On to `CCOC(=O)C1=C(C)N(CCC2CCN(Cc3ccccc3)CC2)C(=O)NC1c1coc2ccc(Br)cc2c1=O` (stereo not shown) [BIGI-3e, ethyl 1-(2-(1-benzylpiperidin-4-yl)ethyl)-4-(6-bromo-4-oxo-4H-chromen-3-yl)-6-methyl-2-oxo-1,2,3,4-tetrahydropyrimidine-5-carboxylate], for which the IC50 was 0.06 µM in assay [1] and 1.9 ± 0.6 µM in assay [2]. Further, the Ki at human AChE (setting [3]) came to 89.5 ± 12.5 nM; at human AChE (binding to free AChE), 51 ± 12.7 nM. The type of inhibition entry on human AChE was “mixed non-competitive”.
Take `CCOC(=O)C1=C(C)N(CCCC2CCN(Cc3ccccc3)CC2)C(=O)NC1c1coc2cc(CC)ccc2c1=O` (stereo not shown) [BIGI-3k, ethyl 1-(3-(1-benzylpiperidin-4-yl)propyl)-4-(7-ethyl-4-oxo-4H-chromen-3-yl)-6-methyl-2-oxo-1,2,3,4-tetrahydropyrimidine-5-carboxylate]: the values for the IC50 in assay [1] and in assay [2] were 0.5 ± 0.02 µM and 1.4 ± 0.5 µM, respectively.
